Results from US20240050428A1 (Cullgen (Shanghai), Inc., priority 2020, published 2024).
Read-outs that look alike come from different tables or passages of the source.

Experiments:
[1] = system: MV4;11 cells; assay: Cell viability assay (CellTiter-Glo) in MV4;11 cells, alone or with gilteritinib; type: cell-based; settings: Homo sapiens, MV4-11, 72 h, MV4;11 cells, three days, CellTiter-Glo, read-out: MV4
[2] = system: MOLM-13 cells; assay: Cell viability assay (CellTiter-Glo) in MOLM-13 cells, alone or with gilteritinib; type: cell-based; settings: Homo sapiens, MOLM-13, 72 h, MOLM-13 cells, three days, CellTiter-Glo
[3] = compound alone (without gilteritinib), 11 IC50
[4] = with gilteritinib 10 nM, 11 IC50 gilteritinib
[5] = compound alone (without gilteritinib), read-out: MOLM-13 IC50
[6] = with gilteritinib 20 nM, read-out: MOLM-13 IC50 gilteritinib

| SMILES | IC50 [1, 3] | IC50 [1, 4] | IC50 [2, 5] | IC50 [2, 6] |
| --- | --- | --- | --- | --- |
| O=C1CCC(N2C(=O)c3ccc(NCCC[C@H]4C[C@@H](n5cc(-c6cnc7ccc(C8CCOCC8)cc7n6)c(C6CC6)n5)C4)cc3C2=O)C(=O)N1 (stereo partly drawn) [GS-213, 5-((3-(cis-3-(3-Cyclopropyl-4-(7-(tetrahydro-2H-pyran-4-yl)quinoxalin-2-yl)-1H-pyrazol-1-yl)cyclobutyl)propyl)amino)-2-(2,6-dioxopiperidin-3-yl)isoindoline-1,3-dione] | < 10 nM | < 10 nM | < 10 nM | < 10 nM |
| O=C1CCC(N2C(=O)c3ccc(NCCC[C@H]4C[C@@H](n5cc(-c6cnc7ccc(NC8CCNCC8)cc7n6)cn5)C4)cc3C2=O)C(=O)N1 (stereo partly drawn) [GS-214, 2-(2,6-Dioxopiperidin-3-yl)-5-((3-(cis-3-(4-(7-(piperidin-4-ylamino)quinoxalin-2-yl)-1H-pyrazol-1-yl)cyclobutyl)propyl)amino)isoindoline-1,3-dione] | 100 to 1000 nM | 10 to 100 nM | > 1000 nM | 10 to 100 nM |
| O=C1CCC(N2C(=O)c3ccc(NCCC[C@H]4C[C@H](n5cc(-c6cnc7ccc(N8CC9CCC(C8)N9)cc7n6)cn5)C4)cc3C2=O)C(=O)N1 (stereo partly drawn) [GS-215, 5-((3-(trans-3-(4-(7-(3,8-Diazabicyclo[3.2.1]octan-3-yl)quinoxalin-2-yl)-1H-pyrazol-1-yl)cyclobutyl)propyl)amino)-2-(2,6-dioxopiperidin-3-yl)isoindoline-1,3-dione] | 100 to 1000 nM | 10 to 100 nM | 100 to 1000 nM | < 10 nM |
| O=C1CCC(N2C(=O)c3ccc(NC[C@H]4C[C@H](n5cc(-c6cccc(N7CCOCC7)n6)cn5)C4)cc3C2=O)C(=O)N1 (stereo partly drawn) [GS-216, 2-(2,6-Dioxopiperidin-3-yl)-5-(((trans-3-(4-(6-morpholinopyridin-2-yl)-1H-pyrazol-1-yl)cyclobutyl)methyl)amino)isoindoline-1,3-dione] | 100 to 1000 nM | > 1000 nM | > 1000 nM | > 1000 nM |
| O=C1CCC(N2C(=O)c3ccc(NCCC[C@H]4C[C@H](n5cc(-c6cccc(N7CCOCC7)n6)cn5)C4)cc3C2=O)C(=O)N1 (stereo partly drawn) [GS-217, 2-(2,6-Dioxopiperidin-3-yl)-5-((3-(trans-3-(4-(6-morpholinopyridin-2-yl)-1H-pyrazol-1-yl)cyclobutyl)propyl)amino)isoindoline-1,3-dione] | 10 to 100 nM | < 10 nM | 100 to 1000 nM | < 10 nM |
| O=C1CCC(N2C(=O)c3ccc(NC[C@H]4C[C@H](n5cc(-c6cccc(NC7CCOCC7)n6)cn5)C4)cc3C2=O)C(=O)N1 (stereo partly drawn) [GS-218, 2-(2,6-Dioxopiperidin-3-yl)-5-(((trans-3-(4-(6-((tetrahydro-2H-pyran-4-yl)amino)pyridin-2-yl)-1H-pyrazol-1-yl)cyclobutyl)methyl)amino)isoindoline-1,3-dione] | 100 to 1000 nM | 10 to 100 nM | 100 to 1000 nM | 10 to 100 nM |
| O=C1CCC(N2C(=O)c3ccc(NCCC[C@H]4C[C@H](n5cc(-c6cnc7c(Cl)cccc7n6)cn5)C4)cc3C2=O)C(=O)N1 (stereo partly drawn) [GS-219, 5-((3-(trans-3-(4-(5-Chloroquinoxalin-2-yl)-1H-pyrazol-1-yl)cyclobutyl)propyl)amino)-2-(2,6-dioxopiperidin-3-yl)isoindoline-1,3-dione] | 100 to 1000 nM | 10 to 100 nM | > 1000 nM | 10 to 100 nM |
| O=C1CCC(N2C(=O)c3ccc(NCCC[C@H]4C[C@H](n5cc(-c6cnc7ccc(N8CCNC9(CC9)C8)cc7n6)cn5)C4)cc3C2=O)C(=O)N1 (stereo partly drawn) [GS-220, 5-((3-(trans-3-(4-(7-(4,7-Diazaspiro[2.5]octan-7-yl)quinoxalin-2-yl)-1H-pyrazol-1-yl)cyclobutyl)propyl)amino)-2-(2,6-dioxopiperidin-3-yl)isoindoline-1,3-dione] | > 1000 nM | 100 to 1000 nM | > 1000 nM | 100 to 1000 nM |
| Cc1nn([C@H]2C[C@@H](CCCNc3ccc4c(c3)C(=O)N(C3CCC(=O)NC3=O)C4=O)C2)cc1-c1cnc2ccc(N3CCOCC3)cc2n1 (stereo partly drawn) [GS-221, 2-(2,6-Dioxopiperidin-3-yl)-5-((3-(cis-3-(3-methyl-4-(7-morpholinoquinoxalin-2-yl)-1H-pyrazol-1-yl)cyclobutyl)propyl)amino)isoindoline-1,3-dione] | < 10 nM | < 10 nM | < 10 nM | < 10 nM |
| O=C1CCC(N2C(=O)c3ccc(NCCC[C@H]4C[C@H](n5cc(-c6cccc(NC7CCOCC7)n6)cn5)C4)cc3C2=O)C(=O)N1 (stereo partly drawn) [GS-222, 2-(2,6-Dioxopiperidin-3-yl)-5-((3-(trans-3-(4-(6-((tetrahydro-2H-pyran-4-yl)amino)pyridin-2-yl)-1H-pyrazol-1-yl)cyclobutyl)propyl)amino)isoindoline-3-dione] | > 1000 nM | 100 to 1000 nM | > 1000 nM | 10 to 100 nM |
| Cc1nn([C@H]2C[C@@H](CCCNc3ccc4c(c3)C(=O)N(C3CCC(=O)NC3=O)C4=O)C2)cc1-c1cnc2ccc(C3CCOCC3)cc2n1 (stereo partly drawn) [GS-223, 2-(2,6-Dioxopiperidin-3-yl)-5-((3-(cis-3-(3-methyl-4-(7-(tetrahydro-2H-pyran-4-yl)quinoxalin-2-yl)-1H-pyrazol-1-yl)cyclobutyl)propyl)amino)isoindoline-1,3-dione] | < 10 nM | < 10 nM | < 10 nM | < 10 nM |
| CN1CCC(c2ccc3ncc(-c4cnn([C@H]5C[C@H](CCCNc6ccc7c(c6)C(=O)N(C6CCC(=O)NC6=O)C7=O)C5)c4)nc3c2)CC1 (stereo partly drawn) [GS-224, 2-(2,6-Dioxopiperidin-3-yl)-5-((3-(trans-3-(4-(7-(1-methylpiperidin-4-yl)quinoxalin-2-yl)-1H-pyrazol-1-yl)cyclobutyl)propyl)amino)isoindoline-1,3-dione] | 100 to 1000 nM | 10 to 100 nM | 100 to 1000 nM | < 10 nM |
| O=C1CCC(N2Cc3ccc(CCCCC4CC(n5cc(-c6cnc7ccccc7n6)cn5)C4)cc3C2=O)C(=O)N1 (centres unmarked) [GS-225, 3-(1-Oxo-6-(4-(3-(4-(quinoxalin-2-yl)-1H-pyrazol-1-yl)cyclobutyl)butyl)isoindolin-2-yl)piperidine-2,6-dione] | 100 to 1000 nM | 10 to 100 nM | > 1000 nM | 10 to 100 nM |
| O=C1CCC(N2Cc3cc(CCCCC4CC(n5cc(-c6cnc7ccccc7n6)cn5)C4)ccc3C2=O)C(=O)N1 (centres unmarked) [GS-226, 3-(1-Oxo-5-(4-(3-(4-(quinoxalin-2-yl)-1H-pyrazol-1-yl)cyclobutyl)butyl)isoindolin-2-yl)piperidine-2,6-dione] | 100 to 1000 nM | 100 to 1000 nM | > 1000 nM | > 1000 nM |
| O=C1CCC(N2C(=O)c3ccc(NCCC[C@H]4C[C@@H](n5cc(-c6cnc7ccc(N8CCOCC8)cc7n6)c(C6CC6)n5)C4)cc3C2=O)C(=O)N1 (stereo partly drawn) [GS-227, 5-((3-(cis-3-(3-Cyclopropyl-4-(7-morpholinoquinoxalin-2-yl)-1H-pyrazol-1-yl)cyclobutyl)propyl)amino)-2-(2,6-dioxopiperidin-3-yl)isoindoline-1,3-dione] | < 10 nM | < 10 nM | < 10 nM | < 10 nM |
| O=C1CCC(N2C(=O)c3ccc(NCCC[C@H]4C[C@H](n5cc(-c6cnc7ccc(CN8CCNCC8)cc7n6)c(C6CC6)n5)C4)cc3C2=O)C(=O)N1 (stereo partly drawn) [GS-228, 5-((3-(trans-3-(3-Cyclopropyl-4-(7-(piperazin-1-ylmethyl)quinoxalin-2-yl)-1H-pyrazol-1-yl)cyclobutyl)propyl)amino)-2-(2,6-dioxopiperidin-3-yl)isoindoline-1,3-dione] | < 10 nM | < 10 nM | < 10 nM | < 10 nM |
| O=C1CCC(N2C(=O)c3ccc(NCCC[C@H]4C[C@H](n5cc(-c6cnc7ccc(OC8CCNCC8)cc7n6)c(C6CC6)n5)C4)cc3C2=O)C(=O)N1 (stereo partly drawn) [GS-229, 5-((3-(trans-3-(3-Cyclopropyl-4-(7-(piperidin-4-yloxy)quinoxalin-2-yl)-1H-pyrazol-1-yl)cyclobutyl)propyl)amino)-2-(2,6-dioxopiperidin-3-yl)isoindoline-1,3-dione] | 10 to 100 nM | < 10 nM | 10 to 100 nM | < 10 nM |
| O=C1CCC(N2C(=O)c3ccc(NCCC[C@H]4C[C@H](n5cc(-c6cnc7ccc(CN8CCOCC8)cc7n6)c(C6CC6)n5)C4)cc3C2=O)C(=O)N1 (stereo partly drawn) [GS-230, 5-((3-(trans-3-(3-Cyclopropyl-4-(7-(morpholinomethyl)quinoxalin-2-yl)-1H-pyrazol-1-yl)cyclobutyl)propyl)amino)-2-(2,6-dioxopiperidin-3-yl)isoindoline-1,3-dione] | 10 to 100 nM | < 10 nM | 10 to 100 nM | < 10 nM |
| O=C1CCC(N2C(=O)c3ccc(NCCC[C@H]4C[C@@H](n5cc(-c6cnc7ccc(C8CCNCC8)cc7n6)c(C6CC6)n5)C4)cc3C2=O)C(=O)N1 (stereo partly drawn) [GS-231, 5-((3-(cis-3-(3-Cyclopropyl-4-(7-(piperidin-4-yl)quinoxalin-2-yl)-1H-pyrazol-1-yl)cyclobutyl)propyl)amino)-2-(2,6-dixopiperidin-3-yl)isoindoline-1,3-dione] | 10 to 100 nM | < 10 nM | 10 to 100 nM | < 10 nM |
| O=C1CCC(N2C(=O)c3ccc(NCCC[C@H]4C[C@H](n5cc(-c6ccccc6)cn5)C4)cc3C2=O)C(=O)N1 (stereo partly drawn) [GS-232, 2-(2,6-Dioxopiperidin-3-yl)-5-((3-(trans-3-(4-phenyl-1H-pyrazol-1-yl)cyclobutyl)propyl)amino)isoindoline-1,3-dione] | 100 to 1000 nM | 100 to 1000 nM | 100 to 1000 nM | > 1000 nM |
